Laboratory results as given in patent EP0373658A2, “Use of quinoline derivatives in treating cancer” (priority 1988, dated 1990).

Tests used:
serum prolactin = experiment: lowering basal serum prolactin levels in the male rat (prolactin secretion inhibition); assay type: in vivo
Description: Many of the above mentioned compounds are published as prolactin secretion inhibitors, some of which are extremely potent and have long lasting activity. The potency of the compounds as prolactin secretion inhibitors can be determined in standard tests, e.g. by lowering basal serum prolactin levels in the male rat.

[1] = test system: 5-HT sensitive adenylate cyclase of the liver fluke; experiment: activation of 5-HT sensitive adenylate cyclase of the liver fluke (method of R. Markstein); assay type: biochemical; conditions: adenylate cyclase stimulated by serotonin
Description: A group of compounds comprises compounds which are D₂ agonists without any antagonistic activity. Another group of compounds includes those compounds which are serotonin agonists, e.g. as indicated in standard in vitro binding tests and by activation of 5-HT sensitive adenylate cyclase of the liver fluke according to the method of R.Markstein, Neurochemical Effects of Some Ergot Derivatives: A Basis for their Antiparkinson Actions. J. Neural transm 51:39, (1981).
Examples of such compounds include compound C and pergolide. Compound C, pergolide and 5-HT agonists have efficacies of 90, 80, and 100 respectively and pD₂ [10g EC₅₀] of 6.9, 6.9 and 7.7 respectively in this test on adenylate cyclase stimulated by serotonin.

[2] = 52 week toxicology studies in rats; assay type: in vivo; conditions: oral doses, 0.20 mg/kg/day
operable breast cancer = experiment: Clinical trial II: antiproliferative effect in operable breast cancer; assay type: in vivo, women; conditions: oral, 20 days, 50 to 200 ug/day/p.o.; compound A 25 µg/day days 0 to 3, 50 µg/day days 4 to 6, 75 µg/day until day 20
Description: 24 to 36 women with operable breast cancer, aged less than 70 years, in whom a positive biopsy cut has been obtained at the first clinic visit are selected. The patients are not be taking any chronic medication which is known to influence serum prolactin levels. The trial is effected on a randomized double blind basis. All patients are to have baseline evaluations before beginning treatment.
The women are given an oral dose of a COMPOUND OF THE INVEN-TION or placebo for 20 days, starting on day 0. They are operated on day 10 with either breast conservation or modified radical mastectomy. Prolactin levels in plasma are measured on days 0, 6, 10, 13 and 20. Histological evaluations are performed on days 1 and 10.

Structure (SMILES) | ID₅₀ mg/kg after 4 hours (serum prolactin) [mg/kg] | efficacies [1] | pD₂ [10g EC₅₀] [1] | toxic effects [2] | mitotic rate (operable breast cancer)
CN1C[C@@H](NS(=O)(=O)N(C)C)C[C@@H]2c3cccc4c3c(cn4C)C[C@H]21 [B, 1,6-dimethyl-8α-(N,N-dimethylsulphamoylamino)-ergoline-I] | 0.003 | – | – | – | –
CCCN1C[C@@H](NS(=O)(=O)N(CC)CC)C[C@@H]2c3cccc4[nH]cc(c34)C[C@H]21 [Compound C, 6-n-propyl-8α-(N,N-diethylsulphamoylamino)-ergoline-I] | 0.001 | 90 | 6.9 | – | –
CCCN1C[C@H](CSC)C[C@@H]2c3cccc4[nH]cc(c34)C[C@H]21 [pergolide, 6-n-propyl-8α-methylmercaptomethyl-ergoline-I, reference compound] | – | 80 | 6.9 | – | –
CCCN1CC(NS(=O)(=O)N(CC)CC)CC2Cc3c(O)cccc3CC21 (stereo not drawn) [Compound A, N,N-diethyl-N′-[(3α,4aα,10aβ)-1,2,3,4,4a,5,10,10a-octahydro-6-hydroxy-1-propyl-3-benzo[g]-quinolinyl] sulfamide] | 0.03 | – | – | no toxic effects are observed | satisfactory results indicative of a reduced mitotic rate
